Measured values published in publication PMC8667898, “Topo II inhibition and DNA intercalation by new phthalazine-based derivatives as potent anticancer agents: design, synthesis, anti-proliferative, docking, and in vivo studies” (Journal of Enzyme Inhibition and Medicinal Chemistry, 2021).

What was measured:
[1] = Histopathological examination of liver tissues of SEC-bearing mice; format: in vivo, Swiss albino mice; settings: H&E stain, ×200
Experimental: (§1) The experimental animals were randomly divided into four groups. Group 1 served as the normal saline control (5 ml/kg B.Wt., I.P.). Group 2 served as the SEC control (1 × 10^6 cells/mouse). Group 3 served as the compound-treated group (5 mg/kg B.Wt., I.P.). […] Bodyweight and survival were recorded daily until the 24th day in both treated and control groups. At the end of the experiment, the blood of each group was collected under light anaesthesia to the estimate of hematological and biochemical assays. The anaesthetised animals were then sacrificed for evaluation of the antitumor activity and histopathological examination.
Specimens of liver-sacrificed mice were fixed in 10% saline formalin. The fixed liver specimens were dehydrated in ascending series of ethyl alcohol and embedded in paraffin. Sections at […] thicknesses were stained with haematoxylin and eosin and examined under the light microscope.

[2] = system: Calf thymus DNA; test: DNA intercalation assay (DNA/methyl green colorimetric assay); format: binding; settings: three independent experiments
Experimental: (§2) The data represented the mean of three independent experiments in triplicate and were expressed as means ± SD. […]
4.2.2. DNA intercalation assay (DNA/methyl green colorimetric assay)
Affinity of some compounds for DNA-binding was examined in vitro using DNA/methyl green assay using doxorubicin as a positive control. In this test, a mixture of methyl green (20 mg) and Calf thymus DNA (10 mg) (Sigma– Aldrich) were suspended in 0.05 M TrisHCl buffer (100 mL, pH 7.5) containing 7.5 mM MgSO4. This mixture was stirred continuously for 24 h at 37 °C. Then, ethanolic solution of the test compounds was pitted into the wells of a 96-well microtiter tray at a concentration of 10, 100 and 1000 µM. The excess solvent was removed from each well under vacuum, with subsequent addition of 200 µL of the DNA/methyl green solution. The test samples were incubated for 24 h in dark at ambient temperature. After that, absorbance of each sample was determined at 642.5–645 nm. In this test, the methyl green dye reversibly binds to DNA to form persistent colored complex of DNA/methyl green. This color still stables at neutral pH. When the DNA intercalators were added, the methyl green was displaced from DNA with addition of H2O molecule to the dye resulting in formation of the colorless carbinol leading to a decrease in spectrophotometric absorbance. ΔA value (the difference between DNA/methyl green complex and free cabinol) provides the simplest means for detecting the DNA-binding affinity and relative binding strength. IC50′s were determined by linear regression of data plotted on a semi -log scale and the data were compared with doxorubicin as standard DNA intercalator . […]

[3] = system: Solid Ehrlich Carcinoma (SEC); test: In vivo antitumor activity against Solid Ehrlich Carcinoma; parameters: species or system Swiss albino mice; settings: SEC-bearing mice, 5 mg/kg BW I.P.
Experimental: To examine the in vivo anticancer activity of compound 9d, adult female Swiss albino mice (30 mice) inoculated with I.P. injection of Solid Ehrlich Carcinoma (SEC) tumour cell lines in a volume of 0.2 ml physiological saline contains 1 × 10^6 viable cells for 24 h.
These mice were randomly divided into four groups (7 mice/group). […] Bodyweight and survival were recorded daily until the 24th day in both treated and control groups. At the end of the experiment, the blood of each group was collected under light anaesthesia for the estimation of hematological and biochemical assays. The anaesthetised animals were then sacrificed to evaluate of the antitumor activity and to conduct hematological, biochemical, and histopathological assays, Figure 3.
Adult female Swiss albino mice purchased from Theodor Bilharzia Research Institute, Giza, Egypt, with an average bodyweight of (18–23) g were used. Mice were housed under constant conditions of 12 h light/dark cycle in a […], with free access to standard laboratory mice food and water. All procedures related to care and maintenance of the animals were performed according to the international guiding principles for animal research and approved by the Faculty of Science, Suez Canal University bioethics and animal ethics committee (Approval number REC-07–2021).
Solid Ehrlich carcinoma (SEC) was purchased from the National Cancer Institute (Cairo University, Egypt). The tumour cell line was proliferated in mice through serial intraperitoneal (I.P.) transplantation of a volume of 0.2 ml physiological saline contains 1 × 10^6 viable cells for 24 h. SEC cells were collected 7 days after I.P. implantation. The harvested cells were diluted with saline to obtain a concentration of 5 × 10^6 viable SEC cells/mL. A volume of 0.2 ml saline contains 1 × 10^6 SEC cells that were I.P. implanted into each normal mouse. SEC cells (1 × 10^6 tumour cells/mouse) were implanted subcutaneously into the right thigh of the hind limb.
as §1
It includes tumour volume, weight, and tumour inhibition ratio (TIR%). Time interval measurements of tumour volume using digital Vernier calliper (Tricle Brand, Shanghai, China). Measure tumour length and width using a clipper and then calculate tumour volume using formulations V = (L × W × W)/2, where V is tumour volume, W is tumour width, L is tumour length. While TIR% was calculated according to the following equation Tumor volume (Control)−Tumor volume (treated)/Tumor volume (control)× 100.

[4] = Hematological and biochemical blood assays in SEC-bearing mice; format: in vivo, Swiss albino mice; settings: 5 mg/kg BW, Mean ± SEM (n = 7)
Experimental: At the end of the experiment, animals from different groups were sacrificed, and blood samples were collected for hematological parameters, including Hb, RBC’s, and WBC’s levels, and serum for determination of liver enzymes ALT, AST levels, and proteins.
as §1
At the end of the experiment, animals from different groups were sacrificed, and blood samples were collected for hematological parameters including, Hb, RBC’s, and WBC’s levels, and serum for determination of liver enzymes ALT, AST levels, and proteins. Complete blood count (CBC) was investigated using the Abbott CELL-DYN®1800 automated haematology analyser (USA) using ready-made kits (Abbott Laboratories, Abbott Park, IL, USA). Activities of aspartate aminotransferase (AST) and alanine aminotransferase (ALT) were evaluated using commercial kits (ELITech clinical systems, France). Serum albumin level was determined by kit purchased from STANBIO Company (USA). Protein content was determined by colorimetric method using ready-made kits produced by Instrumentation Laboratory SpA, Inova diagnostics, Milano, Italy.

[5] = system: HCT-116 cells (colorectal carcinoma); test: MTT anti-proliferative assay, HCT-116; format: cell-based, human; settings: Homo sapiens, HCT-116, MTT, mean ± SD of three separate experiments; read-out: In vitro Cytotoxicity IC50 HCT-116
Experimental: Anti-proliferative activities of the target compounds were assessed via the standard MTT method[38–40] against three cancer cell lines, namely, hepatocellular carcinoma (HepG-2), colorectal carcinoma (HCT-116), and human breast adenocarcinoma (MCF-7). Doxorubicin was used in this test as a positive control.
Anti-proliferative activity of the synthesised compounds was estimated using the MTT assay protocol[8]^,[38–40] as shown in Supplementary data.
4.2.1. In vitro anti-proliferative activity against MCF-7, HepG-2 and HCT-116 The cells were cultured in RPMI-1640 medium supplemented with 10% fetal bovine serum (FBS), penicillin (100 unit /mL) and streptomycin sulphate (100µg/mL) at 37 °C in a 5% CO2 incubator.
Then, cells were dropped in 96-well plates at a density of 3-8 × 10^3 cells/well and incubated for two days in a 5% CO2 incubator at 37 °C. Then, the cells were treated with the synthesized compounds and the cell cultures were continued incubated for 24 h. However, Different concentrations of the compound under test (0.0, 5.0, 12.5, 25.0 and 50 mg/ml) were added to the cell monolayer. Then, (3-[4,5-dimethylthiazol-2-yl]- 2,5-diphenyltetrazolium bromide) MTT solution (20 µl, 5mg/mL) was added to each well and incubated for additional 4 h. The formed purple crystals of MTT-formazan were dissolved in 100 µl DMSO each well; the absorbance of each well was measured at 570 nm using a plate reader (EXL 800, USA). All of the compounds were tested three times. The relative cell viability in percentage was calculated. The results for IC50 values of the active compounds are […]
as §2
of the cells could survive. […]

With `COc1cccc2c1C(=O)c1c(O)c3c(c(O)c1C2=O)C[C@@](O)(C(=O)CO)C[C@@H]3O[C@H]1C[C@H](N)[C@H](O)[C@H](C)O1` [Doxorubicin, reference compound] the “Histopathological finding in liver tissue” value [1] was “tissue enhancement like normal group, but still, some hydropic degeneration, pyknosis (arrows) and karyolysis (arrowhead) were shown”, the IC50 [2] was 31.3 ± 1.8 µM and the tumour volume [3] was 22 mm^3. For the same compound, the “reduction of the increase in solid tumour mass” value ([3]; compared to SEC control) was 59.8%, the solid tumour mass ([3]; SEC control 194 mg) was 78 mg and the Hb [4] was 7.82 ± 0.27 g/dL. The RBCs count [4] was 5.26 ± 0.38 ×10^6/µL, the “Total Protein” value [4] was 6.73 ± 0.26 g/dL and the WBCs count [4] was 4.11 ± 0.57 ×10^3/µL. The IC50 [5] was 9.62 ± 0.5 µM.
